Test results taken from ChEMBL document CHEMBL5260858, “Targeting mycobacterial membranes and membrane proteins: Progress and limitations” (Bioorg Med Chem, 2023).
Values after ≈ are worked out from the molar mass of the structure shown.

Experiments:
[1] = system: Mycobacterium tuberculosis; assay: Antitubercular activity against Mycobacterium tuberculosis H37Rv assessed as bacterial growth inhibition by REMA analysis; type: functional
[2] = system: Mycobacterium tuberculosis; assay: Antitubercular activity against Mycobacterium tuberculosis H37Rv infected in human HepG2 cells assessed as reduction in colony forming unit by CFU analysis; type: functional, organism-based
[3] = system: Mycobacterium tuberculosis; assay: Antitubercular activity against Mycobacterium tuberculosis H37Rv assessed as bacterial growth inhibition by microdilution method; type: functional
[4] = system: Mycobacterium tuberculosis; assay: Antitubercular activity against Mycobacterium tuberculosis H37Rv assessed as bacterial growth inhibition incubated for 6 days by resazurin based fluorescence assay; type: functional; conditions: 144 h, time 6 day
[5] = system: Mycobacterium tuberculosis; assay: Antitubercular activity against Mycobacterium tuberculosis mc2 7000 assessed as bacterial growth inhibition incubated for 6 days by resazurin based fluorescence assay; type: functional; conditions: mc2 7000, 144 h, time 6 day
[6] = system: Mycobacterium tuberculosis; assay: Antitubercular activity against Mycobacterium tuberculosis H37Rv assessed as bacterial growth inhibition and measured upto 14 days by microplate alamar blue assay; type: functional; conditions: 336 h, time <= 14 day
[7] = system: Mycobacterium tuberculosis; assay: Antitubercular activity against Mycobacterium tuberculosis H37Rv assessed as bacterial growth inhibition incubated for 14 days by agar plate method; type: functional; conditions: 336 h, time 14 day
[8] = system: Mycobacterium tuberculosis; assay: In vivo antimycobacterial activity against Mycobacterium tuberculosis H37Rv infected in BALB/c mouse assessed as reduction in log10 CFU in lungs at 50 mg/kg, po and measured after 4 weeks; type: functional
[9] = system: Mycobacterium tuberculosis; assay: In vivo antimycobacterial activity against Mycobacterium tuberculosis H37Rv infected in BALB/c mouse assessed as reduction in log10 CFU in lungs at 12.5 mg/kg, po and measured after 4 weeks; type: functional
[10] = system: Mycobacterium tuberculosis; assay: Antitubercular activity against Mycobacterium tuberculosis assessed as bacterial growth inhibition; type: functional
[11] = system: Mycobacterium tuberculosis; assay: Antitubercular activity against Mycobacterium tuberculosis H37Rv assessed as bacterial growth inhibition; type: functional
[12] = system: Mycobacterium tuberculosis; assay: Antitubercular activity against Mycobacterium tuberculosis H37Rv infected in human monocyte macrophage assessed as bacterial growth inhibition and measured after 21 days by colony counting based analysis; type: functional; conditions: 504 h, time 21 day
[13] = system: Mycobacterium tuberculosis; assay: Antitubercular activity against Mycobacterium tuberculosis H37Rv expressing GFP assessed as bacterial growth inhibition by measuring GFP fluorescence incubated for 72 hrs by fluorescence analysis; type: functional
[14] = system: Mycobacterium tuberculosis; assay: Antimycobacterial activity against Mycobacterium tuberculosis H37Rv ATCC27294 assessed as bacterial growth inhibition incubated for 7 days by microplate Alamar blue assay; type: functional; conditions: H37Rv ATCC27294, 168 h, time 7 day
[15] = system: Mycobacterium tuberculosis; assay: Antitubercular activity against Mycobacterium tuberculosis H37Rv ATCC25618 assessed as bacterial growth inhibition incubated for 6 days by resazurin based fluorescence analysis; type: functional; conditions: H37Rv ATCC25618, 144 h, time 6 day
[16] = system: Mycobacterium tuberculosis; assay: Antitubercular activity against Mycobacterium tuberculosis H37Rv ATCC 27294 assessed as bacterial growth inhibition by resazurin microtiter assay; type: functional
[17] = system: Mycobacterium tuberculosis; assay: Antitubercular activity against Mycobacterium tuberculosis H37Rv ATCC 27294 infected in mouse J774 cells assessed as intracellular bacterial growth inhibition incubated for by resazurin microtiter assay; type: functional
[18] = molecular target: T1, Decaprenylphosphoryl-beta-D-ribose oxidase (Mycobacterium tuberculosis (strain ATCC 25618 / H37Rv), UniProt P9WJF1); assay: Inhibition of Mycobacterium tuberculosis H37Rv DprE1 assessed as formation of resorufin using farnesyl-phosphoryl-beta-D-ribofuranose by AmplexRed reagent based fluorescence assay
T1 sequence (P9WJF1 whole entry): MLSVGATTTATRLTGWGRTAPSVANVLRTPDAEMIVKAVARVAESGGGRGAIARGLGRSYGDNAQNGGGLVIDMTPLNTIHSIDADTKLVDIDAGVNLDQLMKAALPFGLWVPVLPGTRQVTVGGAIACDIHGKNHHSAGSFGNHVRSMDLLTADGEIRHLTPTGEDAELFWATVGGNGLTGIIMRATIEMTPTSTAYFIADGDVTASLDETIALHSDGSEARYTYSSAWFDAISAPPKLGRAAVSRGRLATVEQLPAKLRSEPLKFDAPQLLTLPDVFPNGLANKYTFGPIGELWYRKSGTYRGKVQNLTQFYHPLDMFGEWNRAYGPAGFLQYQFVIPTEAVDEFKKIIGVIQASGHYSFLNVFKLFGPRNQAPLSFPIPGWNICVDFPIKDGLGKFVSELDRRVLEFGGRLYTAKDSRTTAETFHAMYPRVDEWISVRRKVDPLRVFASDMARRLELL

[19] = system: Mycobacterium tuberculosis; assay: Antimycobacterial activity against Mycobacterium tuberculosis H37Rv assessed as bacterial growth inhibition incubated for 1 week by resazurin reduction microplate assay; type: functional; conditions: 168 h, time 1 weeks

Question: For `COc1ccc(CNc2nc3cc(C(F)(F)F)ccc3nc2C(=O)O)cc1`, which MIC99 [1] is on record?
Answer: 3.1 µM (≈ 1.17 µg/mL)

Question: What about the IC50 [2] of the same compound?
Answer: 2.5 µM

Question: With `CCOC(=O)c1nc2ccc(C(F)(F)F)cc2nc1NCc1ccc(OC)cc1` as the compound, how does the MIC99 [1] read?
Answer: 3.1 µM (≈ 1.26 µg/mL)

Question: And the IC50 [2]?
Answer: 6.1 µM

Question: `COC(=O)c1c(NC(=O)c2c(F)c(F)c(F)c(F)c2F)sc2c1CCCCC2` was tested. Which MIC [3] did it give?
Answer: 1 µM

Question: For `c1cc2c(s1)CCOC21CCN(Cc2ccc3c(c2)OCCO3)CC1`, which MIC [4] is on record?
Answer: 0.38 µM (≈ 0.136 µg/mL)

Question: For `CCOC(=O)c1c(-c2ccccc2)oc2ccc(O)c(CN3CCCCC3)c12`, which MIC [5] is on record?
Answer: 0.4 µM (≈ 0.152 µg/mL)

Question: How did the MIC [6] turn out when `Cc1cc(C)c2cc(C(=O)NC3CCCCC3)[nH]c2c1` was run?
Answer: 0.125 µg/mL (≈ 0.462 µM)

Question: Which MIC [6] does the source give for `Cc1cc(C)c2cc(C(=O)NC3CCCCCCC3)[nH]c2c1` here?
Answer: 0.0039 µg/mL (≈ 0.0131 µM)

Question: For `Cc1cc(C)c2cc(C(=O)NC3CCCCCC3)[nH]c2c1`, which MIC [6] is on record?
Answer: 0.0156 µg/mL (≈ 0.0549 µM)

Question: For `Cc1cc2oc(=O)cc(-c3ccccc3)c2c(C)c1-c1ccc(CN2CCOCC2)cc1`, which MIC [7] is on record?
Answer: 0.42 µM (≈ 0.179 µg/mL)

Question: What does the source list for `CC1(C)CCC(NC(=O)c2cc3c(F)cc(F)cc3[nH]2)CC1`?
Answer: Activity [8]: 3.4 log10CFU; Activity [9]: 0.9 log10CFU

Question: `CC1(C)CCC(NC(=O)c2cc3c(Cl)cc(Cl)cc3[nH]2)CC1` was tested. Which Activity [8] did it give?
Answer: 3.82 log10CFU

Question: What about the Activity [9] of the same compound?
Answer: 1.24 log10CFU

Question: How did the MIC [1] turn out when `O=c1nc(N2CCN(CCC3CCCCC3)CC2)sc2c([N+](=O)[O-])cc(C(F)(F)F)cc12` was run?
Answer: 0.00019 µg/mL (≈ 0.000404 µM)

Question: With `CCCCCCCN1CCN(c2nc(=O)c3cc(C(F)(F)F)cc([N+](=O)[O-])c3s2)CC1` as the compound, how does the MIC [1] read?
Answer: 0.00019 µg/mL (≈ 0.000414 µM)

Question: With `O=c1nc(N2CCN(CCCCOc3ccccc3)CC2)sc2c([N+](=O)[O-])cc(C(F)(F)F)cc12` as the compound, how does the MIC [1] read?
Answer: 0.0015 µg/mL (≈ 0.00295 µM)

Question: Which MIC [1] does the source give for `O=c1nc(N2CCN(CCCCc3ccccc3)CC2)sc2c([N+](=O)[O-])cc(C(F)(F)F)cc12` here?
Answer: 0.00035 µg/mL (≈ 0.000711 µM)

Question: For `Clc1ccc2c(c1)N(CCC[P+](c1ccccc1)(c1ccccc1)c1ccccc1)c1ccccc1S2.[Cl-]`, which MIC [10] is on record?
Answer: 1 µg/mL

Question: How did the MIC50 [11] turn out when `FC(F)(F)c1ccc2c(c1)N(CCC[P+](c1ccccc1)(c1ccccc1)c1ccccc1)c1ccccc1S2.[Cl-]` was run?
Answer: 1 µg/mL

Question: `Brc1ccc2[nH]c(CCC3CCCCC3)nc2c1` was tested. Which MIC99 [12] did it give?
Answer: 2.44 µM (≈ 0.75 µg/mL)

Question: `Cc1cc2nc(CCC3CCCCC3)[nH]c2cc1C` was tested. Which MIC99 [12] did it give?
Answer: 0.145 µM (≈ 0.0372 µg/mL)

Question: `CCCn1cnc2cc(NCc3ccc(Cl)cc3Cl)ccc21` was tested. Which IC90 [13] did it give?
Answer: 16 µM

Question: For `O=c1nc(N2CCC3(CCN(Cc4ccc(F)cc4)C3)CC2)sc2c([N+](=O)[O-])cc(C(F)(F)F)cc12`, which MIC [14] is on record?
Answer: < 0.035 µM

Question: For `CCOC(=O)c1c(-c2ccccc2)oc2ccc(O)c(CN3CCC(C)CC3)c12`, which MIC [5] is on record?
Answer: 2.3 µM (≈ 0.905 µg/mL)

Question: How did the MIC50 [11] turn out when `CCCCCCCCn1cc(CN2CCCCCC2)c2c(F)cccc21` was run?
Answer: 2.3 µM

Question: With `CCCc1ccc(NC(=O)COc2cc(C)nc3ccc(OC)cc23)cc1` as the compound, how does the MIC [15] read?
Answer: 0.02 µg/mL (≈ 0.0549 µM)

Question: Which MIC [15] does the source give for `CCCCCc1ccc(NC(=O)COc2cc(C)nc3ccc(OC)cc23)cc1` here?
Answer: 0.02 µg/mL (≈ 0.051 µM)

Question: For `O=c1c(NCc2ccccn2)c(-c2ccc(N3CCOCC3)cc2)c1=O`, which MIC [11] is on record?
Answer: 0.016 µg/mL (≈ 0.0458 µM)

Question: Which MIC [15] does the source give for `CCc1ccc(NC(=O)COc2cc(C)nc3ccc(OC)cc23)cc1` here?
Answer: 0.02 µg/mL (≈ 0.0571 µM)

Question: `CCCCCCCCn1cc(CN2CCC3(CC2)OCCCO3)c2ccc(OC)cc21` was tested. Which MIC50 [11] did it give?
Answer: 0.5 µM

Question: How did the MIC90 [16] turn out when `CC1(C)CC(=O)C(=CNc2ccccc2O)C(=O)C1` was run?
Answer: 7 µg/mL (≈ 27 µM)

Question: And the MIC [17]?
Answer: 8 µg/mL (≈ 30.9 µM)

Question: Which MIC99 [1] does the source give for `CCOc1ccc(CNc2nc3cc(C(F)(F)F)ccc3nc2C(=O)O)cc1` here?
Answer: 3.1 µM (≈ 1.21 µg/mL)

Question: For `O=c1nc(N2CCN(CC3CCCCC3)CC2)sc2c(-n3cccc3)cc(C(F)(F)F)cc12`, which IC50 [18] is on record?
Answer: < 8 µM

Question: And the MIC [19]?
Answer: 0.34 µM (≈ 0.162 µg/mL)
